“Also recorded” adds a separate entry of the source. Where two headings read alike, the source gives them in different places.

Series [1] deals with T1, HIV-1 RT-associated RNase H (Human immunodeficiency virus type 1 group M subtype B, UniProt P04585). In words: HIV-1 DNA polymerase-independent RNase H activity determination (wt RT). The series is classed as biochemical. The procedure: (§1) Heterodimeric RT was expressed essentially as described[19]^,[39]. Using a BioLogic LP system (Biorad), using a combination of immobilised metal affinity (Ni-Sepharose high performance, Healthcare Lifescience) and ion exchange chromatography (Hi-trap heparin HP GE). The protein was dialysed and stored in buffer containing 50 mM Tris HCl pH 7.0, 25 mM NaCl, 1 mM EDTA, and 50% glycerol. Catalytic activities and protein concentrations were determined. Enzyme-containing fractions were pooled and aliquots were stored at −80 °C.
(§2) HIV RT-associated RNase H activity was measured as described[40] using as a control the RNase H selective inhibitor RDS1759[9], and using different amount of enzymes according to a linear range of dose-response curve: 20 ng of WT RT; 75 ng V108F RT; 50 ng Y188A RT; 30 ng W229A RT; 100 ng A502F RT.

The nature of series [2]: Cytotoxicity in MT-4 cells. As to conditions: human.
For series [3], the target named is T1, HIV-1 RT-associated RNase H. Details: method as in PMID 26990134. As to conditions: previously reported value; read-out: IC50, RNase H inhibition; cited from earlier work.
In series [4] the target is T2, HIV-1 RT-associated RNA dependent DNA polymerase (RDDP) (Human immunodeficiency virus type 1 group M subtype B, UniProt P04585). Details: method as in PMID 26990134. The following applies: RDDP vs RNase H; cited from earlier work.
In another series the target is W229A RT (RDDP function) (Human immunodeficiency virus type 1 group M subtype B, UniProt P04585, W816A). The series can be described thus: RDDP activity of W229A mutated RT. The series is classed as biochemical, HIV-1. The following applies: compared with wt RT. The procedure: (§3) RNA-dependent DNA polymerase (RDDP) activity was measured as described[17] using and different amounts of enzymes according to a linear range of dose-response curve: 6 ng wt RT; 19 ng V108F RT; 45 ng Y188A RT; 30 ng W229A RT; A502F RT. The Yonetani-Theorell analysis was performed as previously described[41]^,[42].

Series [5] concerns the target HIV-1 RT wild type RNA-dependent DNA polymerase activity (Human immunodeficiency virus type 1 group M subtype B, UniProt P04585). In words: Yonetani-Theorell analysis of combination with EFV on RDDP function. The following applies: compound 22 at 10 and 30 μM with EFV. The series is classed as biochemical. As to the method: as §3
The target of series [6] is T2, HIV-1 RT-associated RNA dependent DNA polymerase (RDDP). The series can be described thus: HIV-1 RNA-dependent DNA polymerase activity determination (wt RT). The series is classed as biochemical. The procedure: as §1, §3
For series [7], the target named is W229A RT (RNase H function) (Human immunodeficiency virus type 1 group M subtype B, UniProt P04585, W816A). In words: RNase H activity of W229A mutated RT. The series is classed as biochemical, HIV-1. As to conditions: compared with wt RT. As to the method:
as §2

Series [8] deals with V108F RT (RNase H function) (Human immunodeficiency virus type 1 group M subtype B, UniProt P04585, V695F). In words: RNase H activity of V108F mutated RT. It counts as biochemical, HIV-1. The following applies: compared with wt RT. The procedure:
as §2

A further series concerns the target p66/p51 HIV-1 RT (Human immunodeficiency virus type 1 group M subtype B, UniProt P04585). The series is classed as binding. As to conditions: increasing concentration of compound; 100 ng/µl HIV-1 RT.
Another series has as its target Y188A RT (RDDP function) (Human immunodeficiency virus type 1 group M subtype B, UniProt P04585, Y775A). In words: RDDP activity of Y188A mutated RT. The series is classed as biochemical, HIV-1. As to the method:
as §3

Series [9] can be described thus: Interaction between Mg2+ and HIV-1 RT inhibitors (UV-Vis spectra with MgCl2). The following applies: 100 µM compound, MgCl2 up to 1.25 mM. It counts as physicochemical. As to the method: The effects of the magnesium ions were evaluated by mean of spectrophotometric method as reported, using a Ultrospec 2100 pro UV-Vis spectrophotometer (Amersham Biosciences) and Hellma quartz cuvette with 1 cm optical path. […]. Each studied compound was dissolved in DMSO to a final concentration of 10 mM and diluted in milliQ water to a final concentration of 100 µM. Each obtained solution was placed in a cuvette and the UV-Vis and the spectra were recorded between 200 and 700 nm using water milliQ (with a percentage of DMSO equal to the one present in the sample solution) as reference. Thereafter, small volumes of MgCl2 aqueous solution were added both in the sample and in the reference cuvettes to obtain a series of solutions containing increasing concentrations of MgCl2, up to 1.25 mM, carefully pipetting to mix, and the UV-Vis spectra were repeated. Each experiment was performed in triplicate.

Another series deals with A502F RT (RDDP function) (Human immunodeficiency virus type 1 group M subtype B, UniProt P04585, A1089F). The series can be described thus: RDDP activity of A502F mutated RT. The series is classed as biochemical, HIV-1. The following applies: compared with wt RT. The procedure: as §3
Series [10] deals with Y188A RT (RNase H function) (Human immunodeficiency virus type 1 group M subtype B, UniProt P04585, Y775A). The series can be described thus: RNase H activity of Y188A mutated RT. The following applies: compared with wt RT. It counts as biochemical, HIV-1. As to the method: as §2
In series [11] the target is A502F RT (RNase H function) (Human immunodeficiency virus type 1 group M subtype B, UniProt P04585, A1089F). In words: RNase H activity of A502F mutated RT. The series is classed as biochemical, HIV-1. As to the method: as §2
The target in another series is V108F RT (RDDP function) (Human immunodeficiency virus type 1 group M subtype B, UniProt P04585, V695F). The series can be described thus: RDDP activity of V108F mutated RT. The series is classed as biochemical, HIV-1. As to the method:
as §3

The mark [12] stands for this setting: wt RT, read-out: IC50, HIV-1 RT-associated RNase H activity.

`O=c1oc(-c2ccccc2O)nc2sc3c(c12)CCCCC3` [Compound 12, 2–(2-Hydroxyphenyl)-6,7,8,9-tetrahydro-4H,5H-cyclohepta[4,5]thieno[2,3-d][1,3]oxazin-4-one]: the IC50 in series [1] (setting [12]) came out at 18.2 µM.
For the molecule `O=c1oc(-c2ccc(O)c(O)c2)nc2ccccc12` [Compound 26, 2–(3,4-Dihydroxyphenyl)-4H-3,1-benzoxazin-4-one], the CC50 in [2] was 27 to 300 µM.
As for `O=c1oc(-c2ccc(O)c(O)c2)nc2sc3c(c12)CCCC3` [Compound 20, 2–(3,4-Dihydroxyphenyl)-5,6,7,8-tetrahydro-4H-[1]benzothieno[2,3-d][1,3]oxazin-4-one], the half-maximal inhibitory concentration (IC50) in series [1] (setting [12]) was 3.35 µM. Further, the CC50 in [2] was 27 to 300 µM.
`O=C(Nc1sc2c(c1C(=O)Nc1ccccn1)CCCCC2)c1ccc(O)c(O)c1` [Compound 1]: the IC50 in series [3] was 0.84 µM. Moreover, the “weaker potency against the polymerase activity with respect to RNase H activity” value in series [4] is on record as 20 fold.
As to `COc1ccccc1C(=O)Nc1sc2c(c1C(N)=O)CCCCC2` [Compound 7, 2-[(2-Methoxybenzoyl)amino]-5,6,7,8-tetrahydro-4H-cyclohepta[b]thiophene-3-carboxamide], the IC50 in series [1] (setting [12]) is 14 µM.
Turning to `O=c1oc(-c2ccc(O)c(O)c2)nc2sc3ccccc3c12` [Compound 22, 2–(3,4-Dihydroxyphenyl)-4H-[1]benzothieno[2,3-d][1,3]oxazin-4-one], the “effect of W229A substitution on inhibition of RDDP” value on W229A RT (RDDP function) is listed as “did not significantly affect”. The “Yonetani-Theorell: combined RDDP inhibition with EFV” value in series [5] is “kinetically mutually exclusive”. Besides, the IC50 was 0.53 µM in series [1] (setting [12]); 2.9 µM in [6]; 9.64 µM on Y188A RT (RDDP function); greater than 100 µM in series [11]; 10.6 µM against V108F RT (RDDP function). In addition, the “effect of W229A substitution on inhibition of RNase H” value in [7] is “did not significantly affect”. For the same molecule, the “effect of V108F substitution on inhibition of RNase H” value in [8] is “no significant effect”. The “change of RT melting temperature (Tm)” value on p66/p51 HIV-1 RT is “dose-dependent increase in the RT Tm”. In series [2], this molecule came in with a CC50 of 27 to 300 µM. Moreover, the “magnesium complexation (UV-Vis spectra)” value in series [9] is reported as “did not show any shift in the maximum of absorbance; also recorded: unable to chelate Mg^2+ ions”. Besides, the “effect of A502F substitution on inhibition of RDDP” value at A502F RT (RDDP function) is on record as “not significantly affecting”. Besides, in series [10], the “effect of Y188A substitution on inhibition of RNase H” value was “no significant effect”.
For the molecule `Nc1sc2c(c1C(=O)Nc1ccc(Cl)cc1)CCCCC2` [Compound 5], in series [1] (setting [12]), the IC50 worked out at 16.5 µM.
In turn, `O=c1[nH]c(-c2ccc(O)c(O)c2)nc2ccccc12` [Compound 27, 2–(3,4-Dihydroxyphenyl)quinazolin-4(3H)-one] yielded a CC50 in series [2] of 27 to 300 µM.
For `O=c1oc(-c2ccc(O)c(O)c2)nc2c3c(sc12)CCCCC3` [Compound 23, 2–(3,4-Dihydroxyphenyl)-7,8,9,10-tetrahydrocyclohepta[4,5]thieno[3,2-d][1,3]oxazin-4(6H)-one], the CC50 in series [2] was 27 to 300 µM.
`O=c1oc(-c2ccc(O)c(O)c2)nc2sc3c(c12)CCC3` [Compound 21, 2–(3,4-Dihydroxyphenyl)-6,7-dihydro-4H,5H-cyclopenta[4,5]thieno[2,3-d][1,3]oxazin-4-one]: in [1] (setting [12]), the half-inhibitory concentration (IC50) amounted to 1 µM. In series [2], this molecule registered a cytotoxic concentration (CC50) of 27 to 300 µM.
As for `O=c1oc(-c2ccc(O)c(O)c2)nc2c1CCCCC2` [Compound 25, 2–(3,4-Dihydroxyphenyl)-6,7,8,9-tetrahydrocyclohepta[d][1,3]oxazin-4(5H)-one], the CC50 in series [2] fell in the range of 27 to 300 µM.
In the case of `O=c1oc(-c2ccc(O)c(O)c2)nc2c1sc1ccccc12` [Compound 24, 2–(3,4-Dihydroxyphenyl)-4H-[1]benzothieno[3,2-d][1,3]oxazin-4-one], the IC50 in series [1] (setting [12]) came out at 0.96 µM; in series [6] it was 14.6 µM. For the same molecule, the “change of RT melting temperature (Tm)” value on p66/p51 HIV-1 RT is on record as “dose-dependent increase in the RT Tm”. Moreover, the cytotoxic concentration (CC50) in series [2] is 27 to 300 µM. Also, the “magnesium complexation (UV-Vis spectra)” value in [9] is listed as “did not show any shift in the maximum of absorbance; also recorded: unable to chelate Mg^2+ ions”.
Turning to `O=c1oc(-c2ccc(O)c(O)c2)nc2sc3c(c12)CCCCC3` [Compound 10, 2–(3,4-Dihydroxyphenyl)-6,7,8,9-tetrahydro-4H,5H-cyclohepta[4,5]thieno[2,3-d][1,3]oxazin-4-one], the IC50 in [1] (compound added after the RNA:DNA duplex substrate, read-out: IC50, RNase H activity, compound added after the RNA:DNA duplex substrate) stood at 11 µM; in series [1] (setting [12]) it was 1.1 µM. Besides, the CC50 in [2] was in the range of 27 to 300 µM.
For the molecule `NC(=O)c1c(NC(=O)c2ccc(O)c(O)c2)sc2c1CCCCC2` [Compound 6, 2-[(3,4-Dihydroxybenzoyl)amino]-5,6,7,8-tetrahydro-4H-cyclohepta[b]thiophene-3-carboxamide], the IC50 in series [1] (setting [12]) was 2.6 µM.

A word on the IC50: it is the midpoint of a concentration-inhibition curve. What is called CC50 is the concentration at which the toxic effect on the cells reaches its halfway point. Higher therefore signals better tolerance by the cells.

The record behind these values is publication PMC6211256, “From cycloheptathiophene-3-carboxamide to oxazinone-based derivatives as allosteric HIV-1 ribonuclease H inhibitors” (Journal of Enzyme Inhibition and Medicinal Chemistry, 2018).
